What all share (type): cell-based
The target in experiment [1] is T1, vanilloid receptor 1 (VR1/TRPV1) (Rattus norvegicus, UniProt O35433).
T1 construct: The vertebral column is removed from decapitated rats; from tissue; host or cells: primary cells from rat dorsal root ganglia (DRG)
Description: Functional FLIPR Ca2+ influx assay on vanilloid receptor 1, capsaicin stimulus (Pharmacological Method I). Particulars: for inhibition at 1 µM / inhibition at 5 µM: capsaicin, read-out: inhibition (in percent), Rat Capsaicin.
Description: The agonistic or antagonistic action of the substances to be investigated on the vanilloid receptor 1 (VR1/TRPV1) of the species rat can be determined using the following assay. According to this assay, the Ca^2+ influx through the receptor channel is quantified with the aid of a Ca^2+-sensitive dye (Type Fluo-4, Molecular Probes Europe BV, Leiden Netherlands) in a fluorescent imaging plate reader (FLIPR, Molecular Devices, Sunnyvale, USA).
The vertebral column is removed from decapitated rats and this is laid directly in a cold, i.e. ice bath-surrounded, HBSS buffer (Hank's buffered saline solution, Gibco Invitrogen GmbH, Karlsruhe, Germany) and 1% by volume of an AA solution (antibiotics/antimycotics solution, PAA, Pasching, Austria) is added. The vertebral column is cut in two longitudinally and the vertebral canal is removed together with fascias. Subsequently, the dorsal root ganglia (DRGs) are removed and in turn stored in cold HBSS buffer to which 1% by volume of an AA solution has been added. The DRGs completely freed from blood residues and spinal nerves are in each case transferred to 500 μL of cold collagenase Type 2 (PAA, Pasching, Austria) and incubated at 37° C. for 35 minutes. […] On completion of incubation, the enzyme solution is carefully pipetted off and 500 μL of complete medium are added to the DRGs in each case. The DRGs are in each case repeatedly suspended, drawn through No. 1, No. 12 and No. 16 needles by means of a syringe and transferred to 50 mL Falcon tubes and these are filled to 15 mL with complete medium. The contents of each Falcon tube are in each case filtered through a 70 μm Falcon filter insert and centrifuged at 1200 rpm and room temperature for 10 minutes. The resulting pellet is in each case taken up in 250 μL of complete medium and the cell count is determined.
The number of cells in the suspension is adjusted to 3×10^5 per mL and in each case 150 μL of this suspension are added to a well of the cell culture plates coated as described above.
The cells are then loaded with 2 μM Fluo-4 and 0.01% by volume of Pluronic F127 (Molecular Probes Europe BV, Leiden Netherlands) in HBSS buffer (Hank's buffered saline solution, Gibco Invitrogen GmbH, Karlsruhe, Germany) at 37° C. for 30 min, washed 3 times with HBSS buffer and, after a further incubation of 15 minutes at room temperature, employed in the FLIPR assay for Ca^2+ measurement. […] Quantification is carried out by measuring the highest fluorescence intensity (FC, fluorescence counts) over time.
Initially, the compounds to be tested (10 μM) are pipetted onto the cells and the Ca^2+ influx is compared with the control (capsaicin 10 μM). Information is gained therefrom in % activation relative to the Ca^2+ signal after addition of 10 μM of capsaicin (CP). After incubation for 5 minutes, 100 nM of capsaicin are applied and the influx of Ca^2+ is likewise determined.
Desensitizing agonists and antagonists lead to suppression of the Ca^2+ influx. The percentage inhibition is calculated in comparison with the maximum inhibition achieved with 10 μM of capsaicin.
Triplicate determinations (n=3) are carried out and these are repeated in at least 3 independent experiments (N=4).
Based on the percentage displacement effected by different concentrations of the compounds of the general formula I to be tested, IC50 inhibition concentrations are calculated which cause 50 percent displacement of capsaicin.

Experiment [2] has as its target vanilloid receptor 1 (VR1/TRPV1-Receptor) (Homo sapiens, UniProt Q8NER1). Description: VR1 functional assay following pH-stimulus. The conditions noted are these: read-out: inhibition (in percent), Human following pH-stimulus.
The target in the next experiment is T2, vanilloid receptor (VR1) (Homo sapiens, UniProt Q8NER1).
T2 construct: expressed in transfected cells; host or cells: CHO-K1 cells (ECACC), stably transfected
Description: Functional FLIPR Ca2+ influx assay in CHO-K1 cells transfected with the VR1 gene, capsaicin stimulus (Pharmacological Method II). Particulars: read-out: inhibition (in percent), Human Capsaicin.

The results in this text go back to patent US8735426B2, “Vanilloid receptor ligands, pharmaceutical compositions containing them, process for making them and use thereof for treating pain and other conditions” (Gruenenthal GmbH, priority 2007, dated 2014).

T1 sequence (O35433 whole entry): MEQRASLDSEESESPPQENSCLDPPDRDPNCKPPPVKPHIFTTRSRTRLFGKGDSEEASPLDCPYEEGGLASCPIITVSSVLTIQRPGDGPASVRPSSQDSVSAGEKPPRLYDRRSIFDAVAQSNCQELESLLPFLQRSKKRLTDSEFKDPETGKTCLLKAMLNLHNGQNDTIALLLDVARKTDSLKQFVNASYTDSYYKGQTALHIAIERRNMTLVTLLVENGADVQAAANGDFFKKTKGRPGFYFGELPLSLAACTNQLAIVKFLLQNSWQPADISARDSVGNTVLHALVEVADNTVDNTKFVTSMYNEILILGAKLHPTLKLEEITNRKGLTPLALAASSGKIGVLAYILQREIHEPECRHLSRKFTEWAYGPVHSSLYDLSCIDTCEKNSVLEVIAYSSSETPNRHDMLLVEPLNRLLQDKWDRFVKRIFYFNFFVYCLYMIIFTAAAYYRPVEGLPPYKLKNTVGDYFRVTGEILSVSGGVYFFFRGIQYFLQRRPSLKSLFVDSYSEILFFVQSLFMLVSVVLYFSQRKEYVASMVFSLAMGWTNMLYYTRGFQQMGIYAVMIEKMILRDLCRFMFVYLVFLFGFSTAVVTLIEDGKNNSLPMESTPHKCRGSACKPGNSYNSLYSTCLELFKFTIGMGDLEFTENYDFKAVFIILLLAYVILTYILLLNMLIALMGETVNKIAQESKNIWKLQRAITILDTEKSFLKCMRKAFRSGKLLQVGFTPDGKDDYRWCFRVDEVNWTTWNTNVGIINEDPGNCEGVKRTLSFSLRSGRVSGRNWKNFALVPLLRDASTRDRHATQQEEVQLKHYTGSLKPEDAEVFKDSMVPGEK
Chain of vanilloid receptor 1 (VR1/TRPV1-Receptor) (Q8NER1 whole entry): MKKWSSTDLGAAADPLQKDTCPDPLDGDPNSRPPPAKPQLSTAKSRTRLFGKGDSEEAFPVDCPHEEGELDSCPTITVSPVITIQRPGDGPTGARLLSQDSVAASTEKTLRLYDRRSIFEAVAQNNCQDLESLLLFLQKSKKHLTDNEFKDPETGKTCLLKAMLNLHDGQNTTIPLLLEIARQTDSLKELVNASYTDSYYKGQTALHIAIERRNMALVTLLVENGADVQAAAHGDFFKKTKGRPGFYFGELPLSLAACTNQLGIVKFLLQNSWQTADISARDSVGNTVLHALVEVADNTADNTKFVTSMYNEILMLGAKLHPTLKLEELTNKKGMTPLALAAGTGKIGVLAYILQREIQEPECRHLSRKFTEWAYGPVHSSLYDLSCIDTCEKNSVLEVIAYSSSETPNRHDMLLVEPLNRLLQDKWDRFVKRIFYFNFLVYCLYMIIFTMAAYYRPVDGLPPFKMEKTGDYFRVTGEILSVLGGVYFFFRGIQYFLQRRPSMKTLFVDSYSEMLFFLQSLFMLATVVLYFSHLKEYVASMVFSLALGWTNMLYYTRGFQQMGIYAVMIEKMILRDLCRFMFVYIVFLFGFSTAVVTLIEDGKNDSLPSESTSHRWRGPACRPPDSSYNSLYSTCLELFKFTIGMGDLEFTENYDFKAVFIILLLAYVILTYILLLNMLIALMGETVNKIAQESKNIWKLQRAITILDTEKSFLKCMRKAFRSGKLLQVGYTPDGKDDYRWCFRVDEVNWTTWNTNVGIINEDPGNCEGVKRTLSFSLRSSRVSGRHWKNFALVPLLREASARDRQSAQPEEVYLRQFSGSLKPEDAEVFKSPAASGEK
T2 sequence (Q8NER1 whole entry): as above

On to `CCC(C)(C(=O)NCc1ccc(C(F)(F)F)nc1SC1CCCCC1)c1ccc(NS(C)(=O)=O)c(F)c1` (stereo not drawn) [Example 8, N-((2-(Cyclohexylthio)-6-(trifluoromethyl)pyridin-3-yl)methyl)-2-(3-fluoro-4-(methylsulfonamido)phenyl)-2-methylbutanamide], for which, in experiment [1], the inhibition at 1 µM turned out to be 26% and the inhibition at 5 µM came out at 99%. Moreover, in experiment [2], the inhibition at 5 µM was determined as 0% and the inhibition at 10 µM was 20%. Further, at vanilloid receptor (VR1), the inhibition at 1 µM turned out to be 0% and the inhibition at 5 µM was 80%.
Take `CS(=O)(=O)Nc1ccc(C2(C(=O)NCc3ccc(C(F)(F)F)nc3SC3CCCCC3)CCCC2)cc1F` [Example 14, N-((2-(Cyclohexylthio)-6-(trifluoromethyl)pyridin-3-yl)methyl)-1-(3-fluoro-4-(methylsulfonamido)phenyl)cyclopentanecarboxamide]: the Ki in experiment [1] (capsaicin stimulus) worked out at 117 nM. In experiment [2], the inhibition at 5 µM is 4% and the inhibition at 10 µM was 33%. On vanilloid receptor (VR1) (@ 0.1 μM), the inhibition at 0.1 µM turned out to be 0%. At vanilloid receptor (VR1), the inhibition at 1 µM was 20% and the inhibition at 5 µM was found to be 77%.
As to `CC1CCN(c2nc(C(F)(F)F)ccc2CNC(=O)C2(c3ccc(NS(C)(=O)=O)c(F)c3)CCCCC2)CC1` [Example 15, 1-(3-Fluoro-4-(methylsulfonamido)phenyl)-N-((2-(4-methylpiperidin-1-yl)-6-(trifluoromethyl)pyridin-3-yl)methyl)cyclohexanecarboxamide], in experiment [1], the inhibition at 1 µM came out at 7% and the inhibition at 5 µM came out at 69%. Further, in experiment [2], the inhibition at 5 µM is 7% and the inhibition at 10 µM came out at 32%. On vanilloid receptor (VR1), the inhibition at 1 µM stood at 0% and the inhibition at 5 µM was found to be 33%.
